Here are results for 13 compounds from patent publication US20130287721A1, “METHOD FOR COUNTERACTING AMMONIA MALODOR” (Firmenich SA, priority 2010, published 2013).

For this experiment, the system named is ammonia lateralization threshold. As to the kind of experiment: Panel evaluation of the lateralization threshold (LT) of ammonia alone and in combination with a PRM. It counts as in vivo, panellists. The following applies: for LT of ammonia Panellist 1 Cond II / LT of ammonia Panellist 2 Cond II / LT of ammonia Panellist 3 Cond II / LT of ammonia Panellist 1 %Δ / LT of ammonia Panellist 2 %Δ / LT of ammonia Panellist 3 %Δ: Table 4; for LT of ammonia Panellist 1 Cond II / LT of ammonia Panellist 2 Cond II / LT of ammonia Panellist 3 Cond II: ammonia stimulus combined with PRM stimulus; for LT of ammonia Panellist 1 %Δ / LT of ammonia Panellist 2 %Δ / LT of ammonia Panellist 3 %Δ / Ammonia LT Panellist 1 % Δ / Ammonia LT Panellist 2 % Δ / Ammonia LT Panellist 3 % Δ: change of ammonia LT, Cond II (with PRM) vs Cond I (ammonia alone); for Ammonia LT Panellist 1 Cond II / Ammonia LT Panellist 2 Cond II / Ammonia LT Panellist 3 Cond II / Ammonia LT Panellist 1 % Δ / Ammonia LT Panellist 2 % Δ / Ammonia LT Panellist 3 % Δ: Table 3; for Ammonia LT Panellist 1 Cond II / Ammonia LT Panellist 2 Cond II / Ammonia LT Panellist 3 Cond II: ammonia stimulus combined with PRM stimulus (concentration of Table 2 in propylene glycol). Details: LT of ammonia Panellist 1 Cond II / LT of ammonia Panellist 2 Cond II / LT of ammonia Panellist 3 Cond II: unit not given here. On the procedure:
An ammonia stimulus test range was prepared. To ensure a stable level of ammonia in each stimulus, the ammonia headspace was stabilized by combining appropriate concentrations of NH4Cl, NaOH and H2O instead of simply adding ammonia directly to a solvent. Different concentrations of ammonia were used to create a stimulus test range by utilizing the appropriate amount of each compound (see Table 1).
A stimulus was also prepared for each PRM which was intended to be combined with ammonia stimuli. As the PRMs differed in their potency and to ensure that each PRM stimulus had approximately the same potency, an abbreviated dose response curve was constructed for each PRM by having four panellists evaluate the intensity of five concentration levels of the PRM dissolved in propylene glycol in duplicate. Assessments were made relative to the reference of 170 ppm allyl heptanoate in propylene glycol, which intensity was set to 0. Based upon the average scores, a rough intensity match was made for each PRM utilizing one of the following criteria. If one of the tested concentration levels averaged at or near zero, this concentration level was selected. If the rating created any sort of reasonable curve, the equation of the curve was determined and solved for 0 to arrive at the PRM assessment level. If multiple concentration levels were equally distant form the match level, then the standard deviation across individuals was considered, as were the individual responses. In general, the PRM level was selected to be on average close to 0 with low variability, with two panellists saying the level was a bit too high and the other two panellists saying the level was a bit too low. The PRMs for which a stimulus was prepared are listed in Table 2 below, together with the concentration of the PRM in the stimulus.
Volunteers were screened for their ability to lateralize ammonia stimuli. For the screening, the experimenter measured the participant's lateralization threshold for ammonia using a two-alternative forced choice modified staircase procedure employing a four-in, two-down, one-up rule with a five reversal criterion, as described below, On each trial volunteers were presented with a pair of glass bottles with clean, custom-made nose pieces. One bottle contained ammonia at a particular level selected from Table 1 and the other bottle contained water only. Each bottle was applied to one nostril using the nose piece. The volunteers were asked to identify which bottle in each pair contained ammonia.
If the ammonia stimulus was correctly identified in four consecutive trials, the concentration was decreased by one level of Table 1 on the next trial. If an incorrect answer was provided, the concentration was increased by one level of Table 1. Location (left or right nostril) of the stimulus was randomized over presentations. Testing continued until one of the following occurred: • 1) Five reversals (correct decision followed by an incorrect decision or vice versa) were achieved; • 2) The volunteer gave a correct response twice in a row at the lowest level of Table 1; or • 3) The volunteer gave an incorrect response at the highest level of Table 1.
In the first circumstance, threshold values were then calculated by averaging the last four reversals. In the second circumstance, the LT was the lowest level. In the third circumstance, the LT could not be calculated. Volunteers were considered qualified to participate in the panel evaluation if their LT could be calculated (Circumstance 1).
The LT of ammonia, both alone and in combination with diverse PRM, was determined. A repeated-measures design was used, such that the LT with and without the addition of a PRM were both measured at the same time in one person by utilizing interwoven stimuli presentations. The LT for each PRM was measured by two to three panellists, the third panellists being included if the results of the first to panellists disagreed. […]

Turning to `CCCCC(CC)CCC(C)O` (stereo not shown) [5-ethyl-2-nonanol], the “LT of ammonia Panellist 1 Cond II” value was 19.6, the “LT of ammonia Panellist 2 Cond II” value is 6.2, the “LT of ammonia Panellist 3 Cond II” value came out at 6.3 and the “LT of ammonia Panellist 1 %Δ” value is listed as 885%. The “LT of ammonia Panellist 2 %Δ” value is 452% and the “LT of ammonia Panellist 3 %Δ” value turned out to be 214%.
With `O=Cc1ccc2c(c1)OCO2` [Heliotropine ®, 1,3-Benzodioxole-5-carbaldehyde], the “Ammonia LT Panellist 1 Cond II” value worked out at 7.3 ppm, the “Ammonia LT Panellist 2 Cond II” value was determined as 22.9 ppm, the “Ammonia LT Panellist 3 Cond II” value turned out to be 2.3 ppm and the “Ammonia LT Panellist 1 % Δ” value is on record as 274%. In addition, the “Ammonia LT Panellist 2 % Δ” value is on record as −87% and the “Ammonia LT Panellist 3 % Δ” value is given as −96%.
`CCCCCCOC(=O)c1ccccc1O` [Hexyl salicylate]: the “Ammonia LT Panellist 1 Cond II” value came out at 7.3 ppm, the “Ammonia LT Panellist 2 Cond II” value was determined as 188.3 ppm, the “Ammonia LT Panellist 3 Cond II” value is given as 7.3 ppm and the “Ammonia LT Panellist 1 % Δ” value was −68%. The “Ammonia LT Panellist 2 % Δ” value is given as 162% and the “Ammonia LT Panellist 3 % Δ” value is recorded as −62%.
Regarding `Cc1ccc2c(c1)CC(C)(CO)C2` (stereo not shown) [Lilyflore ®, 2,5-Dimethyl-2-indanmethanol], the “Ammonia LT Panellist 1 Cond II” value came to 60.0 ppm, the “Ammonia LT Panellist 2 Cond II” value was 176.5 ppm, the “Ammonia LT Panellist 3 Cond II” value is recorded as 7.3 ppm and the “Ammonia LT Panellist 1 % Δ” value was found to be 162%. Besides, the “Ammonia LT Panellist 2 % Δ” value is recorded as −6% and the “Ammonia LT Panellist 3 % Δ” value was −84%.
Take `CC(=O)OCCC1CCCCC1` [2-cyclohexylethyl acetate]: the “LT of ammonia Panellist 1 Cond II” value is reported as 2.0, the “LT of ammonia Panellist 2 Cond II” value came to 1.1, the “LT of ammonia Panellist 3 Cond II” value was determined as 1.1 and the “LT of ammonia Panellist 1 %Δ” value is given as 848%. The “LT of ammonia Panellist 2 %Δ” value amounted to 465% and the “LT of ammonia Panellist 3 %Δ” value turned out to be 842%.
Take `CC/C=C\CCO` [(Z)-3-hexen-1-ol]: the “Ammonia LT Panellist 1 Cond II” value stood at 2.3 ppm, the “Ammonia LT Panellist 2 Cond II” value came out at 225.5 ppm, the “Ammonia LT Panellist 3 Cond II” value is 56.3 ppm and the “Ammonia LT Panellist 1 % Δ” value was −68%. Further, the “Ammonia LT Panellist 2 % Δ” value was 0% and the “Ammonia LT Panellist 3 % Δ” value worked out at 671%.
With “3-Methyl-(4/5)-cyclopentadecenone [Muscenone ™]”, the “LT of ammonia Panellist 1 Cond II” value is listed as 11.1, the “LT of ammonia Panellist 2 Cond II” value is recorded as 11.1, the “LT of ammonia Panellist 3 Cond II” value is 11.1 and the “LT of ammonia Panellist 1 %Δ” value was 454%. The “LT of ammonia Panellist 2 %Δ” value amounted to 77% and the “LT of ammonia Panellist 3 %Δ” value was 214%.
On to `C=CC(C)(O)CCC=C(C)C` (stereo not shown) [Linalool], for which the “Ammonia LT Panellist 1 Cond II” value was 188.3 ppm, the “Ammonia LT Panellist 2 Cond II” value turned out to be 22.9 ppm, the “Ammonia LT Panellist 3 Cond II” value came out at 56.3 ppm and the “Ammonia LT Panellist 1 % Δ” value is 2480%. Besides, the “Ammonia LT Panellist 2 % Δ” value turned out to be 0% and the “Ammonia LT Panellist 3 % Δ” value worked out at 214%.
In the case of `CCCc1ccc2c(c1)OCC(=O)CO2` [7-Propyl-2H,4H-1,5-benzodioxepin-3-one], the “LT of ammonia Panellist 1 Cond II” value is reported as 11.1, the “LT of ammonia Panellist 2 Cond II” value is 6.3, the “LT of ammonia Panellist 3 Cond II” value amounted to 3.5 and the “LT of ammonia Panellist 1 %Δ” value is recorded as 456%. For the same compound, the “LT of ammonia Panellist 2 %Δ” value came to 453% and the “LT of ammonia Panellist 3 %Δ” value is 212%.
Consider `COc1cc(C)ccc1O` [Creosol H], for which the “Ammonia LT Panellist 1 Cond II” value is given as 17.9 ppm, the “Ammonia LT Panellist 2 Cond II” value was 7.3 ppm, the “Ammonia LT Panellist 1 % Δ” value is recorded as −68% and the “Ammonia LT Panellist 2 % Δ” value was −90%.
For `C=C1CCCC(C)(C)C1C(=O)/C=C/C` (racemic) [Gamma damascone, (+−)-(E)-1-(2,2-dimethyl-6-methylene-1-cyclohexyl)-2-buten-1-one], the “LT of ammonia Panellist 1 Cond II” value turned out to be 6.3, the “LT of ammonia Panellist 2 Cond II” value was found to be 19.6, the “LT of ammonia Panellist 3 Cond II” value turned out to be 11.1 and the “LT of ammonia Panellist 1 %Δ” value came out at 214%. For the same compound, the “LT of ammonia Panellist 2 %Δ” value is reported as 885% and the “LT of ammonia Panellist 3 %Δ” value is 456%.
Take `CCCCC[C@H]1CCC[C@H]1O` (relative stereo) [Cis-2-pentyl-1-cyclopentanol]: the “LT of ammonia Panellist 1 Cond II” value is given as 2.0, the “LT of ammonia Panellist 2 Cond II” value is given as 0.4, the “LT of ammonia Panellist 3 Cond II” value amounted to 3.5 and the “LT of ammonia Panellist 1 %Δ” value is listed as 216%. For the same compound, the “LT of ammonia Panellist 2 %Δ” value was determined as 90% and the “LT of ammonia Panellist 3 %Δ” value amounted to 212%.
On to `CCC(=O)OCC(C)(C)O[C@@H](C)[C@@H]1CCCC(C)(C)C1` [Helvetolide ®, (+)-(1S,1′R)-2-[1-(3′,3′-dimethyl-1′-cyclohexyl)ethoxy]-2-methylpropyl propanoate], for which the “LT of ammonia Panellist 1 Cond II” value was determined as 11.1, the “LT of ammonia Panellist 2 Cond II” value is reported as 2.0, the “LT of ammonia Panellist 3 Cond II” value came out at 2.0 and the “LT of ammonia Panellist 1 %Δ” value came to 454%. Besides, the “LT of ammonia Panellist 2 %Δ” value was determined as 426% and the “LT of ammonia Panellist 3 %Δ” value is 895%.
